Drawing on the PolyMetriX glass transition set, this text covers glass transition temperature for 69 compounds.

SMILES strings stand for the structures.

`*/C(=C(/*)c1cccc([Si](C)(C)C)c1)c1ccccc1` (repeat unit) showed a glass transition temperature of 200.00 °C. The result for `*/C=C(\C#N)C(=O)OCCCCCCOC(=O)/C(C#N)=C/c1ccc2c(c1)c1cc(*)ccc1n2CCCCCCCCCCCn1c2ccccc2c2ccccc21` (repeat unit) reads 63.00 °C. `*/C=C/c1cc(OCCCCCCC)c(/C=C/c2ccc(*)cc2)cc1OCCCCCCC` (repeat unit) showed a glass transition temperature of 46.00 °C. Consider `*/C=C/c1cc(OCCCCCCCC)c(/C=C/c2ccc(*)c3nsnc23)cc1OCCCCCCCC` (repeat unit), for which the glass transition temperature is 153.00 °C.

`*/C=C/c1cc(OCCCCCCCCC)c(/C=C/c2ccc(*)cc2)cc1OCCCCCCCCC` (repeat unit) returned a glass transition temperature of 44.00 °C. Then `*/C=C/c1cc(OCCCCCCCCCCCC)c(/C=C/c2ccc(*)cc2)cc1OCCCCCCCCCCCC` (repeat unit), with 38.00 °C; and `*/C=C/c1ccc(/C=C/c2ccc3c(c2)Sc2cc(*)ccc2N3c2ccc(OCCCCCCCCCCCC)cc2)s1` (repeat unit), with 155.00 °C; and `*=Cc1cc(OCCCCCCCC)c(/C=N/c2ccc(N=*)cc2)cc1OCCCCCCCC` (repeat unit), with 32.70 °C. The result for `*CC(=O)C(*)c1ccccc1` (repeat unit) reads 110.00 °C; that for `*CC(=O)O*` (repeat unit), 45.00 °C; that for `*CC(C)(C)C1C(=O)N(C(C)C)C(=O)C1*` (repeat unit), 145.00 °C. Compound `*CC(C)(C)C1C(=O)N(C)C(=O)C1*` (repeat unit) gave a glass transition temperature of 156.50 °C. Regarding `*CC(C)(C)C1C(=O)N(c2c(CC)cccc2CC)C(=O)C1*` (repeat unit), the glass transition temperature turned out to be 210.00 °C. The result for `*CC(C)C(*)(C)C` (repeat unit) reads 37.00 °C; that for `*CC(C)CC(*)(C)C(=O)OC` (repeat unit), 16.00 °C; that for `*CC(CBr)O*` (repeat unit), -14.00 °C. `*CC(CC(*)(C#N)C#N)c1ccc(F)cc1` (repeat unit) yielded a glass transition temperature of 180.00 °C. The result for `*CC(CC(*)(C#N)C#N)c1ccc(OC(C)=O)cc1` (repeat unit) reads 180.00 °C. For `*CC(CCCC)O*` (repeat unit), the glass transition temperature was -69.00 °C. Then `*CC(COC(=O)CCCCCN1C(=O)C2C3C=CC(C3)C2C1=O)O*` (repeat unit), with 1.00 °C; and `*CC(COC(=O)c1ccc(N2C(=O)C3C4C=CC(C4)C3C2=O)cc1)O*` (repeat unit), with 62.50 °C; and `*CC(COC(C)(C)C)O*` (repeat unit), with -24.00 °C. Then `*CC(COc1ccc(-c2ccc(OC)cc2)cc1)O*` (repeat unit), with 111.00 °C; and `*CC(COc1ccccc1)O*` (repeat unit), with 42.00 °C; and `*CC(CS(=O)(=O)CCCC)O*` (repeat unit), with 37.00 °C.

In turn, `*CC(CSC(C)C)O*` (repeat unit) came in with a glass transition temperature of -44.00 °C. The result for `*CC(CSC)O*` (repeat unit) reads -37.00 °C; that for `*CC(CSCC)O*` (repeat unit), -57.00 °C; that for `*CC(CSCCC)O*` (repeat unit), -61.00 °C. `*CC(C[Si](*)(C)C)c1ccccc1` (repeat unit) returned a glass transition temperature of -5.00 °C. `*CC(Cc1ccc(-c2ccccc2)cc1)C[Si](*)(C)C` (repeat unit) came in with a glass transition temperature of 28.00 °C.

The compound `*CC(F)(F)C1(F)CC(CC(O)(C(F)(F)F)C(F)(F)F)CC1*` (repeat unit) had a glass transition temperature of 98.00 °C. The result for `*CC(O)CCCCC(O)CN(*)c1ccc(N(C)C)cc1` (repeat unit) reads 72.00 °C. The result for `*CC(O)CN(*)c1cc(C)c(/N=N/c2ccc(C#N)cc2)c(C)c1` (repeat unit) reads 150.00 °C; that for `*CC(O)CN(*)c1cc(C)c(/N=N/c2ccc(Cl)cc2)c(C)c1` (repeat unit), 150.00 °C.

Turning to `*CC(O)CN(*)c1cc(C)c(/N=N/c2ccc([N+](=O)[O-])cc2)c(C)c1` (repeat unit), the glass transition temperature was determined as 152.00 °C. As to `*CC(O)CN(*)c1ccc(/N=N/c2ccc(C(=O)O)cc2)cc1` (repeat unit), the glass transition temperature was determined as 99.00 °C. Then `*CCCC(O)CN(CCCC)c1ccc(C#Cc2ccc(S(*)(=O)=O)cc2)cc1` (repeat unit), with 48.00 °C. The result for `*CCCCCCCCCCN/C(C)=N/*` (repeat unit) reads 80.00 °C; that for `*CCCCCCCCNC(=O)CC(=O)N*` (repeat unit), 55.00 °C. The result for `*CCCCCCCCn1c2ccccc2c2cc(/C=C(\C#N)C(=O)OCCCCCCOC(=O)/C(C#N)=C/c3ccc4c(c3)c3ccccc3n4*)ccc21` (repeat unit) reads 96.70 °C; that for `*CCCCCCCn1c2ccccc2c2cc(/C=C(\C#N)C(=O)OCCCCCCOC(=O)/C(C#N)=C/c3ccc4c(c3)c3ccccc3n4*)ccc21` (repeat unit), 107.80 °C; that for `*CCCCCCNC(=O)CC(C)(C)c1ccc(C(C)(C)CC(=O)N*)cc1` (repeat unit), 91.00 °C.

`*CCCCCCNC(=O)CC(C)c1ccc(C(C)CC(=O)N*)cc1` (repeat unit) had a glass transition temperature of 88.00 °C. Turning to `*CCCCCCOC(=O)CC(=O)OCCCCCCOc1ccc(-n2on2-c2ccc(O*)cc2)cc1` (repeat unit), the glass transition temperature came out at 16.00 °C. Then `*CCCCCCOc1c(OC)cc(/C=C/c2ccc(/C=C/c3cc(OC)c(O*)c(OC)c3)cc2)cc1OC` (repeat unit), with 90.00 °C; and `*CCCCCCn1c2ccccc2c2cc(/C=C(\C#N)C(=O)OCCCCCCOC(=O)/C(C#N)=C/c3ccc4c(c3)c3ccccc3n4*)ccc21` (repeat unit), with 117.70 °C. Compound `*CCCCCOc1ccc(/C=C/C(=O)OCCN(CCOC(=O)/C=C/c2ccc(O*)cc2)c2ccc(/N=N/c3ccc([N+](=O)[O-])cc3)cc2)cc1` (repeat unit) gave a glass transition temperature of 92.00 °C. In turn, `*CCCCOCC(O)CN(CC(O)CO*)c1ccc(N(C)C)cc1` (repeat unit) displayed a glass transition temperature of 31.00 °C. The result for `*CCCS(=O)(=O)c1ccc(/N=N/c2ccc(N(CCCC)CC(=O)O*)cc2)cc1` (repeat unit) reads 92.40 °C; that for `*NC(C)CC(*)=O` (repeat unit), 125.00 °C; that for `*Nc1ccc(-c2ccc(NC(=O)Cc3cc(CC(*)=O)c(C)cc3C)cc2)cc1` (repeat unit), 230.00 °C.

For `*Nc1cccc(NC(=O)Cc2cc(CC(*)=O)c(C)cc2C)c1` (repeat unit), the glass transition temperature turned out to be 222.00 °C. The result for `*OC(C)CC(*)=O` (repeat unit) reads 3.40 °C.

`*OC(CCCCC)CC(*)=O` (repeat unit): the glass transition temperature was -33.00 °C. The result for `*OC(CCCCCC)CC(*)=O` (repeat unit) reads -47.00 °C; that for `*OC(CCCCCCC=C)CC(*)=O` (repeat unit), -50.00 °C; that for `*Oc1ccc(/C=C/c2cc(OCCCCCCCC)c(/C=C/c3ccc(Oc4cc5c6c(ccc7c8c(*)cc9c%10c(ccc(c4c67)c%108)C(=O)N(CCCCCCCC)C9=O)C(=O)N(CCCCCCCC)C5=O)cc3)cc2OCCCCCCCC)cc1` (repeat unit), 103.00 °C. The result for `*Oc1ccc(C2(c3ccc(Oc4ccc(/C=C/C(=O)c5ccc(*)cc5)cc4)cc3)c3ccccc3-c3ccccc32)cc1` (repeat unit) reads 195.00 °C; that for `*Oc1ccc(NC(=O)/C=C/c2ccc(/C=C/C(=O)Nc3ccc(*)cc3)cc2)cc1` (repeat unit), 205.00 °C; that for `*Oc1ccc(S(=O)(=O)c2ccc(Oc3ccc(/C=C4\CCC/C(=C\c5ccc(*)cc5)C4=O)cc3)cc2)cc1` (repeat unit), 190.00 °C. `*Oc1ccc(S(=O)(=O)c2ccc(Oc3ccc(C4(c5ccc(Oc6ccc(S(=O)(=O)c7ccc(Oc8ccc(/C=C9\CCC/C(=C\c%10ccc(*)cc%10)C9=O)cc8)cc7)cc6)cc5)CCCCC4)cc3)cc2)cc1` (repeat unit) displayed a glass transition temperature of 190.00 °C. Then `*Oc1ccc(S(=O)(=O)c2ccc(Oc3ccc(C4(c5ccc(Oc6ccc(S(=O)(=O)c7ccc(Oc8ccc(/C=C9\CCCC/C(=C\c%10ccc(*)cc%10)C9=O)cc8)cc7)cc6)cc5)CCCCCC4)cc3)cc2)cc1` (repeat unit), with 196.00 °C. Turning to `*SCC(=O)N/N=C/c1ccc(OCCCCCCCCCCOc2ccc(/C=N/NC(=O)CSc3nnc(*)s3)cc2OC)c(OC)c1` (repeat unit), the glass transition temperature was determined as 156.00 °C. Then `*c1ccc(/C=C/c2cc(OCCCCCCCC)c(/C=C/c3ccc(N(*)c4ccccc4)cc3)cc2OCCCCCCCC)cc1` (repeat unit), with 74.00 °C; and `*c1ccc(C(=O)OCCCCCCCCCCOc2ccc(/C=C/C(=O)/C=C/c3ccc(OCCCCCCCCCCOC(=O)c4ccc(-c5nnc(*)o5)cc4)cc3)cc2)cc1` (repeat unit), with 58.00 °C; and `*c1ccc(C(=O)OCCCCCCCCOc2ccc(/C=C/C(=O)/C=C/c3ccc(OCCCCCCCCOC(=O)c4ccc(-c5nnc(*)o5)cc4)cc3)cc2)cc1` (repeat unit), with 59.00 °C. Then `*c1ccc(C(=O)OCCCCCCOc2ccc(/C=C/C(=O)/C=C/c3ccc(OCCCCCCOC(=O)c4ccc(-c5nnc(*)o5)cc4)cc3)cc2)cc1` (repeat unit), with 62.00 °C. `*c1ccc(Oc2ccc(/C=C/c3ccc(Oc4ccc(-c5nnc(*)o5)cc4)cc3)cc2)cc1` (repeat unit) registered a glass transition temperature of 215.00 °C.
